Reference: publication PMC4016869, “In Search of the Active Metabolites of an Anticancer Piperazinedione, TW01003, in Rats” (BioMed Research International, 2014)
Where a name gives a salt, the structure may show the parent alone.

Key:
[1] = Pharmacokinetics of TW01003 and TW01003 sulfate after i.v. administration of TW01003 in Wistar rats; format: in vivo, rat; conditions: for Cmax / MRT inf / Vd / clearance / half-life: male, rat, iv; for Cmax / MRT inf / Vd / clearance / half-life / AUMCINF / AUCINF / AUCall: plasma, i.v. TW01003 2.0 mg/kg; for Cmax / MRT inf / Vd / clearance / half-life / AUMCINF: n = 6, mean ± SD; for AUCINF: n = 6, time 0 to infinite; for AUCINF / AUCall: mean ± SD; for AUCall: n = 6, time 0 to last sampling time
Description: Single-dose TW01003 in a solution (1 mL) containing a 9 : 1 (v/v) ratio of vehicle V : 10% Na2CO3(aq) was used for animal studies in pig or in male Wistar rats. For metabolic studies, the TW01003 test solution was administered intravenously (7 mg/kg, n = 1) to the tail vein or orally (36 mg/kg, n = 1) by a feeding tube. For pharmacokinetic studies, the test solution was administered intravenously to the tail vein of Wistar rats (2.0 mg/kg, 1 mL, n = 6). The rats were put under a heating lamp to maintain body temperatures at 37°C throughout the experiment. All procedures involving the use of animals were approved by the Institutional Animal Care and Use Committee of Taipei Medical University.
Blood samples (0.5 mL) were withdrawn from the carotid artery of rats at time intervals of 5, 15, 30, 45, 60, 90, 120, 180, and 240 min. Heparin sodium (25 IU/mL in 0.3 mL of saline) was added, and the blood samples were centrifuged (5,585 g) at 4°C for 8 min. The plasma was frozen immediately and kept at −78°C until analysis. The plasma sample (150 μL) was mixed with a sulfatase solution (200 IU/mL, 50 μL) at 37°C for 2 h. The plasma sample (150 μL) mixed with 50 μL of a buffer solution (pH 5.0) was used for the control group. The internal standard solution was then added, and the solution was centrifuged (5,585 g) for 10 min. The supernatant was concentrated to dryness with nitrogen gas. The D5W vehicle (200 μL) was then added to the residue, and the solution was subjected to HPLC analysis.
We established the plasma concentration-time profile. The area under the plasma concentration-time profile (AUC) and other pharmacokinetic parameters (peak concentration: C max; time to reach C max: T max; area under the moment curve: AUMC; volume of distribution: V D) were calculated using the log-linear trapezoidal rule. […] Terminal half-life (t 1/2) was compartment model-independently estimated. Data analysis was performed using Microsoft Excel, and data were represented as mean ± standard deviation (SD) for n experiments. Treatment differences were evaluated by the paired t-test.

[2] = Identification of TW01003 metabolites in pig urine after i.v. administration (HPLC, sulfatase treatment); format: in vivo; conditions: i.v. TW01003 200 mg, urine 60 min after dosing
From the text: Crossbred 3-4-month-old pigs weighing 40–50 kg, obtained from the Animal Technology Institute, Taiwan (Miaoli, Taiwan), were used in a preliminary metabolic study for establishing the HPLC analytical method for the identification of TW01003 and its metabolites. The phase II conjugate TW01003 sulfate was first isolated from pig urine as an authentic sample for analysis. Male Wistar rats (200–250 g) for pharmacokinetic studies were purchased from the Laboratory Animal Center of National Taiwan University (Taipei, Taiwan). The animals were pathogen free and allowed to acclimate to the environmentally controlled quarters (24 ± 1°C and 12 : 12 h light-dark cycle) for at least 5 days before the experiments. Animal studies were conducted in accordance with the Guide for the Care and Use of Laboratory Animals.
In order to establish a feasible analytical method for the identification of TW01003 metabolites in a biological system, a test solution containing 200 mg of TW01003 was first injected into a 40–50 kg pig. Fresh urine (1 mL) was collected 60 min after dosing, filtered through a 0.22 μm Millipore filter, and subjected to HPLC analysis. Typical HPLC chromatograms of urine sample of untreated pig (Figure 2(a)), urine samples upon i.v. dosing of TW01003 (Figure 2(b)), and urine samples after sulfatase treatment (Figure 2(c)) are depicted.

[3] = Metabolic study of TW01003 in a rat after i.v. administration (plasma, enzymatic treatment, HPLC); format: in vivo
Description: Single-dose TW01003 in a solution (1 mL) containing a 9 : 1 (v/v) ratio of vehicle V : 10% Na2CO3(aq) was used for animal studies in pig or in male Wistar rats. For metabolic studies, the TW01003 test solution was administered intravenously (7 mg/kg, n = 1) to the tail vein or orally (36 mg/kg, n = 1) by a feeding tube. For pharmacokinetic studies, the test solution was administered intravenously to the tail vein of Wistar rats (2.0 mg/kg, 1 mL, n = 6). The rats were put under a heating lamp to maintain body temperatures at 37°C throughout the experiment. All procedures involving the use of animals were approved by the Institutional Animal Care and Use Committee of Taipei Medical University. Blood samples (0.5 mL) were withdrawn from the carotid artery of rats at time intervals of 5, 15, 30, 45, 60, 90, 120, 180, and 240 min. Heparin sodium (25 IU/mL in 0.3 mL of saline) was added, and the blood samples were centrifuged (5,585 g) at 4°C for 8 min. The plasma was frozen immediately and kept at −78°C until analysis. The plasma sample (150 μL) was mixed with a sulfatase solution (200 IU/mL, 50 μL) at 37°C for 2 h. The plasma sample (150 μL) mixed with 50 μL of a buffer solution (pH 5.0) was used for the control group. The internal standard solution was then added, and the solution was centrifuged (5,585 g) for 10 min. The supernatant was concentrated to dryness with nitrogen gas. […]

[4] = Preliminary pharmacokinetic study, oral administration to rats; format: in vivo; conditions: unpublished data
[5] = tested on: vascular endothelial growth factor- (VEGF-) induced angiogenesis; assay: Matrigel with VEGF-induced angiogenesis after oral treatment in mice; format: in vivo; conditions: oral TW01003 3 mg/kg, unpublished data
[6] = tested on: 60 human disease-oriented cancer cell panel; set-up: method as in PMID 23567646; conditions: cited from earlier work

Row | clearance rate relative to TW01003 ([1]; i.v. TW01003, n = 6) | residence time (MRTINF) relative to TW01003 ([1]; i.v. TW01003, n = 6) | systemic exposure (AUCINF) relative to TW01003 ([1]; i.v. TW01003, n = 6) | volume of distribution relative to TW01003 ([1]; i.v. TW01003, n = 6) | Cmax [1] | MRT inf [1] | Vd [1] | clearance [1] | half-life [1] | AUMCINF [1] | AUCINF [1] | AUCall [1] | metabolite found in pig urine [2] | metabolite in rat plasma after i.v. administration ([3]; Wistar rat, i.v. TW01003 6.7 mg/kg, n = 1) | oral fraction absorbed [4] | clearance in words ([3]; rat, i.v. 6.7 mg/kg or oral 36.0 mg/kg, regardless of administration method) | Compound | hemoglobin count of the matrigel reduced to [5] | antitumor activity in words [6]
1 | 2.3 times lower | seven times longer | 2.5 times higher | three times higher | 1310 ± 640 ng/mL | 1.44 ± 0.33 h | 4.43 ± 1.52 L/kg | 51.3 mL/min/kg | 1.31 ± 0.22 h | 1.01 ± 0.36 h∗h∗μg/mL | 0.71 ± 0.25 h∗μg/mL | 0.52 ± 0.20 h∗μg/mL | major metabolite | major metabolite |  |  | O=c1[nH]/c(=C\c2ccc(OS(=O)(=O)O)cn2)c(=O)[nH]/c1=C\c1ccccc1 [TW01003 sulfate] |  | 
2 |  |  |  |  | 2200 ± 250 ng/mL | 0.2 ± 0.06 h | 1.41 ± 0.41 L/kg | 118 mL/min/kg | 0.76 ± 0.14 h | 0.06 ± 0.02 h∗h∗μg/mL | 0.29 ± 0.04 h∗μg/mL | 0.28 ± 0.04 h∗μg/mL |  |  | 1.72% | cleared fairly rapidly | O=c1[nH]/c(=C/c2ccc(O)cn2)c(=O)[nH]/c1=C/c1ccccc1 [TW01003, (3E,6E)-3-Benzylidene-6-[(5-hydroxypyridin-2-yl)methylene]piperazine-2,5-dione] | < 1% | broad spectrum of antitumor activities
